Data as given in publication PMC12114297 (Molecules, 2025).

Columns and labels:
[1] = system: Staphylococcus aureus ATCC 25923; test: Agar well diffusion, S. aureus; format: cell-based; conditions: for Antibacterial activity in words: agar well diffusion, particularly S. aureus; for zone of inhibition at 1000 µg/mL: Staphylococcus aureus, ATCC25923, 60 µL of 1 mg/mL per well, ZOI including the well (6 mm), ± SD, n = 3, ciprofloxacin disk 5 μg, read-out: Staphylococcus aureus ATCC 25923 ZOI
Protocol: The antimicrobial potential of the synthesized coumarin–triazole–isatin hybrids was evaluated by the agar well diffusion method. The activity was tested against a variety of Gram-positive bacteria (Staphylococcus aureus ATCC 25923 and ATCC 902710, Staphylococcus epidermidis ATCC 12228, Streptococcus pyogenes ATCC 19615, Enterococcus faecalis ATCC 51299), Gram-negative bacteria (Escherichia coli ATCC 25922, Haemophilus influenzae ATCC 49766, Pseudomonas aeruginosa ATCC 27853, Salmonella typhi ATCC 14028, Neisseria meningitidis ATCC 13090, Neisseria gonorrhoeae ATCC 43069), and fungi (Candida albicans ATCC 60193 and ATCC 90028, Candida orientalis ATCC 6258). All microbial strains were obtained from Microbiologics (St.Cloud, MN, USA).
The test compounds were dissolved in DMSO to obtain stock solutions (1 mg/mL). Each compound (60 µL) was transferred into wells (6 mm in diameter) that were previously perforated into agar plates inoculated with microbial suspensions standardized to 0.5 McFarland for bacteria and 2 McFarland for Candida spp. DMSO was used as a negative control, while commercial antibiotic disks of novobiocin (5 μg), ampicillin (10 μg), and ciprofloxacin (5 μg) served as positive controls. Antimicrobial activity was assessed by measuring the diameter of zones of inhibition (ZOIs) in millimeters. All tests were conducted in triplicate.

[2] = target: T1, BChE from equine serum (eqBuChE) (Equus caballus, UniProt P81908); test: biochemical; conditions: average ± standard error (n = 3); for inhibition at 20 µM: read-out: BChE % of Inhibition (Conc. 20 μM), 20 μM
T1 construct: BChE from equine serum (BChE, EC 3.1.1.8); purchased Sigma-Aldrich (St. Louis, MO, USA); host or cells: equine serum
T1 sequence (P81908 whole entry): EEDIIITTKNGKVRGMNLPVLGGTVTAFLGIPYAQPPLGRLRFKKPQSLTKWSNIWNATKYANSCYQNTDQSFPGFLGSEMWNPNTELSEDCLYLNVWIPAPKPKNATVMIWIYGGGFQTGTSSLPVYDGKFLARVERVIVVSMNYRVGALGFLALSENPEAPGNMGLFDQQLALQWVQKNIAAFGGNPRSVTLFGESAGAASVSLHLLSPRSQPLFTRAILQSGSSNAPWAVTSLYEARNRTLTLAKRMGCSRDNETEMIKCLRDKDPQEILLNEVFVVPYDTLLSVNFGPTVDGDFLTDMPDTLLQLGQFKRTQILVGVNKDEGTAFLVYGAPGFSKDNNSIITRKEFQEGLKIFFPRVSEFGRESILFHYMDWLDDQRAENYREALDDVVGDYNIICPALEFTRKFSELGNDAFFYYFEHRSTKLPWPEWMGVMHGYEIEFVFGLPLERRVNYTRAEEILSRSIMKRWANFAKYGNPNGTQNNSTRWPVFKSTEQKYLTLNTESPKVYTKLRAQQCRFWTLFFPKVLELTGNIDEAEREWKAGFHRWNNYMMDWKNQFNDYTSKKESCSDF
Protocol: The in vitro cholinesterase inhibitory activity of the synthesized hybrid molecules was evaluated using a modified Ellman’s assay, optimized for 96-well microplate application. AChE from Electrophorus electricus (AChE, EC 3.1.1.7), BChE from equine serum (BChE, EC 3.1.1.8), acetylthiocholine iodide (ATCh), butyrylthiocholine iodide (BTCh), and 5,5′-dithiobis(2-nitrobenzoic acid) were purchased from Sigma-Aldrich (St. Louis, MO, USA) and used without further purification.
Test compounds were initially dissolved in dimethylsulphoxide (DMSO) to yield 1 mM stock solutions and subsequently diluted with 0.1 M phosphate buffer (pH 8.0) to prepare working solutions.
For the assay, 20 µL of compound solution was added to 140 µL of 0.1 M phosphate buffer (pH 8.0) in each well, followed by 20 µL of enzyme solution (AChE or BuChE, 100 U/L). After incubation at room temperature for 10 min, the reaction was initiated by adding 10 µL of DTNB (0.01 M) and 10 µL of substrate (ATCh or BTCh, 0.015 M). […] The percentage inhibition of enzyme activity was calculated using the following equation:(1) % Inhibition=Absorbance of control−Apsorbance of sample/Absorbance of control×100 where the absorbance of the control represents the maximum enzyme activity (without inhibition), and the absorbance of the sample corresponds to the enzyme activity in the presence of the tested compound. Appropriate blanks were included to account for background absorbance and to correct for any intrinsic color of the tested compounds.
All experiments were performed in triplicate.

[3] = target: T2, AChE from Electrophorus electricus (eeAChE) (Electrophorus electricus, UniProt O42275); test: biochemical; conditions: read-out: AChE % of Inhibition (Conc. 20 μM)
T2 construct: purchased Sigma-Aldrich (St. Louis, MO, USA)
T2 sequence (O42275 24-633): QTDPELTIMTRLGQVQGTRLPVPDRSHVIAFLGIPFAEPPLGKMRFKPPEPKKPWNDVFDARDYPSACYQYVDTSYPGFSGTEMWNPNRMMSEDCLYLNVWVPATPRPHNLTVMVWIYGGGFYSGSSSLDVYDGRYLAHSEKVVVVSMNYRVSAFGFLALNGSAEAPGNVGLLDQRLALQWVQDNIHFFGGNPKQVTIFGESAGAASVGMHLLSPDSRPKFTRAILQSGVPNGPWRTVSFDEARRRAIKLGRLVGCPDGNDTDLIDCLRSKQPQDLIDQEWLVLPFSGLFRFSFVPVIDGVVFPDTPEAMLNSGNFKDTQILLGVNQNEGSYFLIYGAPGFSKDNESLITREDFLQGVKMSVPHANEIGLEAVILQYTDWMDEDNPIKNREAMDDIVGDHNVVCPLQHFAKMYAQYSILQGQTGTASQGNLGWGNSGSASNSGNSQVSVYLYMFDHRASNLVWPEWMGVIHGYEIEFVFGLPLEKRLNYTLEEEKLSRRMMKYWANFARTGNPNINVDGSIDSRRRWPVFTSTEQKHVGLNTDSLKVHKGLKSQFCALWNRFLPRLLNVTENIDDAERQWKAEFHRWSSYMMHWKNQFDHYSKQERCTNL

SMILES	Antibacterial activity in words [1]	inhibition at 20 µM [2]	inhibition at 20 µM [3]	BChE % of Inhibition (Conc. 20 μM) [2]	zone of inhibition at 1000 µg/mL [1]
O=C1C(=O)N(Cc2cn(CCOc3cc(=O)oc4ccccc34)nn2)c2ccc(I)cc21 [Compound 6a5, 5-iodo-1-((1-(2-((2-oxo-2H-chromen-4-yl)oxy)ethyl)-1H-1,2,3-triazol-4-yl)methyl)indoline-2,3-dione]	largely inactive	40.9 ± 6.26%	3.17 ± 0.26%		
O=C1C(=O)N(Cc2cn(CCOc3cc(=O)oc4ccccc34)nn2)c2ccc([N+](=O)[O-])cc21 [Compound 6a6, 5-nitro-1-((1-(2-((2-oxo-2H-chromen-4-yl)oxy)ethyl)-1H-1,2,3-triazol-4-yl)methyl)indoline-2,3-dione]	largely inactive	< 6%	3.11 ± 0.44%	4.89 ± 0.74%	
Cc1ccc2c(c1)C(=O)C(=O)N2Cc1cn(CCOc2cc(=O)oc3ccccc23)nn1 [Compound 6a7, 5-methyl-1-((1-(2-((2-oxo-2H-chromen-4-yl)oxy)ethyl)-1H-1,2,3-triazol-4-yl)methyl)indoline-2,3-dione]	largely inactive		22.8 ± 3.66%	2.91 ± 0.15%	
O=C1C(=O)N(Cc2cn(CCCOc3cc(=O)oc4ccccc34)nn2)c2ccc([N+](=O)[O-])cc21 [Compound 6b6, 5-nitro-1-((1-(3-((2-oxo-2H-chromen-4-yl)oxy)propyl)-1H-1,2,3-triazol-4-yl)methyl)indoline-2,3-dione]	largely inactive	< 6%	17.9 ± 1.91%	5.89 ± 1.91%	
Cc1ccc2c(c1)C(=O)C(=O)N2Cc1cn(CCCOc2cc(=O)oc3ccccc23)nn1 [Compound 6b7, 5-methyl-1-((1-(3-((2-oxo-2H-chromen-4-yl)oxy)propyl)-1H-1,2,3-triazol-4-yl)methyl)indoline-2,3-dione]	largely inactive		24.4 ± 1.27%	4.88 ± 0.27%	
O=C1C(=O)N(Cc2cn(CCCCOc3cc(=O)oc4ccccc34)nn2)c2ccc(Cl)cc21 [Compound 6c3, 5-chloro-1-((1-(4-((2-oxo-2H-chromen-4-yl)oxy)butyl)-1H-1,2,3-triazol-4-yl)methyl)indoline-2,3-dione]	only weak antibacterial activity	5.19 ± 1.14%	44.2 ± 3.14%		10.7 ± 3.06 mm
O=C1C(=O)N(Cc2cn(CCCCOc3cc(=O)oc4ccccc34)nn2)c2ccc(Br)cc21 [Compound 6c4, 5-bromo-1-((1-(4-((2-oxo-2H-chromen-4-yl)oxy)butyl)-1H-1,2,3-triazol-4-yl)methyl)indoline-2,3-dione]	only weak antibacterial activity	27.1 ± 2.19%	9.84 ± 1.19%		12 to 20 mm
O=C1C(=O)N(Cc2cn(CCCCOc3cc(=O)oc4ccccc34)nn2)c2ccc(I)cc21 [Compound 6c5, 5-iodo-1-((1-(4-((2-oxo-2H-chromen-4-yl)oxy)butyl)-1H-1,2,3-triazol-4-yl)methyl)indoline-2,3-dione]	largely inactive	22.9 ± 1.64%	11.2 ± 1.64%		
O=C1C(=O)N(Cc2cn(CCCCOc3cc(=O)oc4ccccc34)nn2)c2ccc([N+](=O)[O-])cc21 [Compound 6c6, 5-nitro-1-((1-(4-((2-oxo-2H-chromen-4-yl)oxy)butyl)-1H-1,2,3-triazol-4-yl)methyl)indoline-2,3-dione]	largely inactive	< 6%	19 ± 1.96%	4.15 ± 0.54%	
COc1cc2c(cc1OC)C(=O)C(CC1CCN(Cc3ccccc3)CC1)C2 (stereo not drawn) [Donepezil, donepezil, reference compound]		74.2 ± 6.17%			
